In publication PMC10706763, “Molecular and Functional Characterization of Pheromone Binding Protein 2 from Cyrtotrachelus buqueti (Coleoptera: Curculionidae)” (International Journal of Molecular Sciences, 2023):
Entries after “also recorded” stand apart in the source; their conditions may differ.

Experiments:
[1] = tested on: antennae of male C. buqueti adults; test: EAG assays after RNAi of CbuqPBP2; type: in vivo, Cyrtotrachelus buqueti; details: 72 h after dsRNA injection; chemical at 100 μg/μL in n-hexane
Procedure: To evaluate the function of CbuqPBP2 in C. buqueti olfaction, the dsRNA-injected, RNase-free water-injected, or non-injected male adults were subjected to EAG (Syntech, Hilversum, Netherlands) at 72 h after injection. Based on the results of the fluorescence competition binding assay, the chemicals (dibutyl phthalate, ethyl hexanoate, styrene and linalool) that bound with CbuqPBP2 were selected for electrophysiological experiments. The tested chemicals were diluted in n-hexane to prepare a solution at a concentration of 100 μg/μL, and n-hexane was used as a blank control.
The antenna for EAG detection was cut off and amputated at the base and tip. The basal and distal ends of the excised antenna were linked to a reference electrode and recording electrode by one teardrop of Spectra R360 electrically conductive gel, respectively. A filter paper strip (2 cm × 0.5 cm) loaded with ten microliters of each chemical solution was inserted into the sample tube (10 cm in length) as a stimuli source. An air-stimulus controller (CS-05 model) was used to deliver the stimulus. The stimulation time was 0.5 s, and the interval for antennal recovery was 30 s. The response of the antenna to each chemical was detected using a high-impedance amplifier (IDAC2) and analyzed using the EAG software (version 2.0) supplied with the instrument. The chemicals were tested randomly for each antenna. The antenna was stimulated one time with n-hexane before and after each chemical stimulation. Three to six antennae were measured for each chemical in independent experiments, and each antenna was tested three times. EAG responses were recorded in mV, and the relative EAG response of each chemical was calculated by using the following formula: Relative EAG response=EAGA/EAGCK1+EAGCK2/2 where EAG(A) represents the EAG response to the chemical; EAGCK1 and EAKCK2 represent EAG responses to n-hexane before and after each chemical stimulation, respectively.

CbuqPBP1 = tested on: CbuqPBP1; design: method as in doi:10.1111/phen.12209; details: cited from earlier work
[2] = tested on: virgin males of C. buqueti; design: method as in earlier work; details: compared with mated males and virgin females; cited from earlier work
CbuqPBP2 = CbuqPBP2 (Cyrtotrachelus buqueti, UniProt A0A1L3KPR5); test: Fluorescence competitive binding assay with 1-NPN probe; details: increasing ligand concentration, Figure 4C,D
CbuqPBP2, sequence (A0A1L3KPR5 entry or part of it): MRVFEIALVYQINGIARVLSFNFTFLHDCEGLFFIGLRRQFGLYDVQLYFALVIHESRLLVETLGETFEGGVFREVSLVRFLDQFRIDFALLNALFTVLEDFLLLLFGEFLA
Procedure: The fluorescent probe 1-NPN and the tested chemicals with a purity of at least more than 96% were purchased from Aladdin Biochemical Technology Co., LTD. (Shanghai, China). The fluorescence binding assay was carried out on a Lumina fluorescence spectrophotometer (Thermo Fisher Scientific, MA, USA) using a 1 cm light path quartz cuvette at 25 °C. All the slit widths for both excitation and emission were 5 nm. The 1-NPN and all the compounds tested were dissolved in chromatography-grade methanol to a final concentration of 1 mM. The CbuqPBP2 protein was dissolved in 50 mM Tris–HCl buffer at pH 7.4 to a final concentration of 2 μM. […] The scanning range was 350–550 nm at each concentration, and the maximum fluorescence intensities were plotted against the free ligand concentration.

Row | Structure (SMILES) | EAG response of dsCbuqPBP2-treated male adults versus water-injected and non-injected controls [1] | binding affinity of CbuqPBP1 (CbuqPBP1) | attraction effect [2] | fluorescence intensity in competitive binding curve (CbuqPBP2)
1 | CCCCOC(=O)c1ccccc1C(=O)OCCCC [Dibutyl phthalate] | significantly reduced | strongest binding affinity | more significant attraction effect | –
2 | CCCCCC(=O)OCC [Ethyl hexanoate] | did not significantly decrease | – | – | –
3 | c1ccc2[nH]ccc2c1 [Indole] | – | – | – | the fluorescence intensity enhanced as the ligand concentration increased
4 | C=CC(C)(O)CCC=C(C)C (stereo not drawn) [Linalool] | not significantly reduced; also recorded: did not influence the EAG response | – | – | –
5 | CC(C)=CCC/C(C)=C/CC/C(C)=C/CC/C=C(\C)CC/C=C(\C)CCC=C(C)C [Squalene] | – | – | – | the fluorescence intensity enhanced as the ligand concentration increased
6 | C=Cc1ccccc1 [Styrene] | significantly reduced | lower binding affinity | – | –
